Read-outs that look alike come from different tables or passages of the source.
Biological target: human cannabinoid CB2 receptor (Homo sapiens, UniProt P34972)
Experiment: Cannabinoid CB2 receptor agonist activity (yeast reporter assay, FDGlu fluorescence)
Assay type: cell-based
Conditions: for Emax: read-out: efficacy value (Emax relative to HU210) at the cloned human cannabinoid CB2 receptor
In short: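 S. cerevisiae MMY23 expressing human CB2 with a Gpa1/Gαi3 chimeric G-protein, grown 24 h at 30 °C with agonist (1% DMSO) in selective media containing 10 mM 3-aminotriazole and FDGlu, pH 7.0. Fluorescein fluorescence (485/535 nm) fitted by four-parameter curve; Emax and EMR relative to HU210.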

[1] = EC50 value at the cloned human cannabinoid CB2 receptor

Sequence of human cannabinoid CB2 receptor (P34972 whole entry): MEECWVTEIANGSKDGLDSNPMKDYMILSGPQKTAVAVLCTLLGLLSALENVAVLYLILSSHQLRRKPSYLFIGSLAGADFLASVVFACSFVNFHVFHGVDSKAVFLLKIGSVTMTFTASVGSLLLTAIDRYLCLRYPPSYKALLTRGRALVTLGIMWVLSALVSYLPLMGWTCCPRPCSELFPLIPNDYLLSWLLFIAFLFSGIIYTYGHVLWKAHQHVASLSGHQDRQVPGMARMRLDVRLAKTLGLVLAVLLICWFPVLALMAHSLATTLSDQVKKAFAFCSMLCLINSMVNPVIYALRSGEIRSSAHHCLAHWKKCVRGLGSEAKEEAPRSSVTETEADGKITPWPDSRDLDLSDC

EC50 (read-out: EC50 value at the cloned human cannabinoid CB2 receptor) | Structure (SMILES) | EC50 [1] | Emax
 | O=C(NCC1CCOCC1)c1cnc(Nc2ccc(Br)cc2C(F)(F)F)nc1C(F)(F)F [Example 254, 2-(2-Trifluoromethyl-4-bromo-phenylamino)-4-trifluoromethyl-pyrimidine-5-carboxylic acid (tetrahydro-pyran-4-ylmethyl)-amide] | 20 to 300 nM | > 50%
 | O=C(NCc1ccncc1)c1cnc(Nc2cccc(Cl)c2Cl)nc1C(F)(F)F [Example 281, 2-(2,3-Dichlorophenylamino)-4-trifluoromethylpyrimidine-5-carboxylic acid (pyridin-4-ylmethyl)amide] | 20 to 300 nM | 
 | O=C(NCC1CC1)c1cnc(Nc2cccc(F)c2)nc1C(F)(F)F [Example 83, 2-(3-Fluoro-phenylamino)-4-trifluoromethyl-pyrimidine-5-carboxylic acid cyclopropylmethyl-amide] | 300 to 1000 nM | > 50%
 | O=C(NC1CCC1)c1cnc(Nc2cccc(Cl)c2Cl)nc1C(F)(F)F [Example 48, 2-(2,3-Dichlorophenylamino)-4-trifluoromethylpyrimidine-5-carboxylic acid cyclobutylamide] | 20 to 300 nM | > 50%
 | O=C(NC1CCC1)c1cnc(Nc2cccc(F)c2)nc1C(F)(F)F [Example 29, 2-(3-Fluoro-phenylamino)-4-trifluoromethyl-pyrimidine-5-carboxylic acid cyclobutylamide] | 300 to 1000 nM | > 50%
 | N#Cc1cccc(Nc2ncc(C(=O)NCC3CCCC3)c(C(F)(F)F)n2)c1 [Example 173, 2-(3-Cyanophenylamino)-4-trifluoromethyl-pyrimidine-5-carboxylic acid cyclopentylmethyl-amide] | 20 to 300 nM | > 50%
 | N#Cc1ccc(Nc2ncc(C(=O)NCc3ccc(F)cc3)c(C(F)(F)F)n2)cc1Cl [Example 351, 2-(3-Chloro-4-cyano-phenylamino)-4-trifluoromethyl-pyrimidine-5-carboxylic acid 4-fluoro-benzylamide] | 20 to 300 nM | > 50%
 | O=C(NCc1ccccc1)c1cnc(Nc2cccc(F)c2)nc1C(F)(F)F [Example 277, 2-(3-Fluorophenylamino)-4-trifluoromethylpyrimidine-5-carboxylic acid benzyl-amide] | 20 to 300 nM | > 50%
 | O=C(NCc1ccc(F)cc1)c1cnc(Nc2ccc(C(F)(F)F)c(F)c2)nc1C(F)(F)F [Example 369, 2-(3-Fluoro-4-trifluoromethyl-phenylamino)-4-trifluoromethyl-pyrimidine-5-carboxylic acid 4-fluoro-benzylamide] | 20 to 300 nM | 
 | O=C(NCC1CCCCC1)c1cnc(Nc2cccc(Cl)c2F)nc1C(F)(F)F [Example 167, 2-(3-Chloro-2-fluorophenylamino)-4-trifluoromethyl-pyrimidine-5-carboxylic acid cyclohexylmethyl-amide] | 20 to 300 nM | > 50%
 | O=C(c1cnc(Nc2cccc(F)c2)nc1C(F)(F)F)N1CCOCC1 [Example 10, 1-[2-(3-Fluorophenylamino)-4-trifluoromethylpyrimidin-5-yl]-1-morpholin-4-yl-methanone] | 20 to 300 nM | > 50%
 | O=C(NCC1CCCC1)c1cnc(Nc2cc(F)cc(F)c2)nc1C(F)(F)F [Example 96, 2-(3,5-Difluoro-phenylamino)-4-trifluoromethyl-pyrimidine-5-carboxylic acid cyclopentylmethyl-amide] | 300 to 1000 nM | > 50%
 | O=C(NC1CCC1)c1cnc(Nc2cc(Cl)ccc2Cl)nc1C(F)(F)F [Example 50, 2-(2,5-Dichlorophenylamino)-4-trifluoromethylpyrimidine-5-carboxylic acid cyclobutylamide] | 20 to 300 nM | > 50%
 | CN(CC1CCOCC1)C(=O)c1cnc(Nc2cccc(Cl)c2)nc1C(F)(F)F [Example 211, 2-(3-Chlorophenylamino)-4-trifluoromethyl-pyrimidine-5-carboxylic acid methyl-(tetrahydro-pyran-4-ylmethyl)-amide] | 20 to 300 nM | > 50%
 | O=C(NCC1CCCCC1)c1cnc(Nc2cc(C(F)(F)F)cc(C(F)(F)F)c2)nc1C(F)(F)F [Example 88, 2-(3,5-Bis-trifluoromethyl-phenylamino)-4-trifluoromethyl-pyrimidine-5-carboxylic acid cyclohexylmethyl-amide] | 300 to 1000 nM | > 50%
 | O=C(NC1CCS(=O)(=O)CC1)c1cnc(Nc2ccc(Cl)cc2Cl)nc1C(F)(F)F [Example 220, 2-(2,4-Dichloro-phenylamino)-4-trifluoromethyl-pyrimidine-5-carboxylic acid (1,1-dioxo-hexahydro-1l^6-thiopyran-4-yl)-amide] | 20 to 300 nM | > 50%
 | COc1cccc(Nc2ncc(C(=O)N(C)Cc3ccccc3)c(C(F)(F)F)n2)c1 [Example 297, 2-(3-Methoxy-phenylamino)-4-trifluoromethyl-pyrimidine-5-carboxylic acid N-benzyl-N-methyl-amide] | 300 to 1000 nM | > 50%

EC50 (read-out: EC50 value at the cloned human cannabinoid CB2 receptor) | Structure (SMILES) | EC50 [1] | Emax
 | O=C(NCC1CCCCC1)c1cnc(Nc2ccccc2)nc1C(F)(F)F [Example 5] |  | > 50%
 | O=C(NCC1CCCCC1)c1cnc(Nc2ccc(Cl)cc2Cl)nc1C(F)(F)F [Example 16, 2-(2,4-Dichlorophenylamino)-4-trifluoromethylpyrimidine-5-carboxylic acid cyclohexylmethyl-amide] | 20 to 300 nM | > 50%
 | CN(Cc1ccccc1)C(=O)c1cnc(Nc2ccccc2Cl)nc1C(F)(F)F [Example 305, 2-(2-Chloro-phenylamino)-4-trifluoromethyl-pyrimidine-5-carboxylic acid N-benzyl-N-methyl-amide] | 300 to 1000 nM | 
 | O=C(NC[C@H]1CCCO1)c1cnc(Nc2cccc(F)c2)nc1C(F)(F)F [Example 73, 2-(3-Fluoro-phenylamino)-4-trifluoromethyl-pyrimidine-5-carboxylic acid [(R)-1-(tetrahydro-furan-2-yl)methyl]-amide] |  | > 50%
 | COc1ccc(CNC(=O)c2cnc(Nc3cccc(Cl)c3)nc2C(F)(F)F)cc1 [Example 269, 2-(3-Chlorophenylamino)-4-trifluoromethylpyrimidine-5-carboxylic acid 4-methoxybenzyl-amide] | 20 to 300 nM | > 50%
300 to 1000 nM | O=C(NCC1CCCC1)c1cnc(Nc2ccc(C(F)(F)F)c(F)c2)nc1C(F)(F)F [Example 97, 2-(4-Trifluoromethyl-3-fluorophenylamino)-4-trifluoromethyl-pyrimidine-5-carboxylic acid cyclopentylmethyl-amide] |  | 
 | O=C(NCC1CCC1)c1cnc(Nc2cc(F)cc(F)c2)nc1C(F)(F)F [Example 192, 2-(3,5-Difluorophenylamino)-4-trifluoromethyl-pyrimidine-5-carboxylic acid cyclobutylmethyl-amide] | 20 to 300 nM | > 50%
 | O=C(NCC1CCCCC1)c1cnc(Nc2cccc(Cl)c2Cl)nc1C(F)(F)F [Example 15, 2-(2,3-Dichlorophenylamino)-4-trifluoromethylpyrimidine-5-carboxylic acid cyclohexylmethyl-amide] | 20 to 300 nM | > 50%
 | O=C(NCC1CCOCC1)c1cnc(Nc2cccc(F)c2F)nc1C(F)(F)F [Example 107, 2-(2,3-Difluoro-phenylamino)-4-tri-fluoromethyl-pyrimidine-5-carboxylic acid (tetrahydropyran-4-ylmethyl)-amide] | 300 to 1000 nM | > 50%
 | O=C(NCc1ccncc1)c1ccc(Nc2cccc(Cl)c2)nc1C(F)(F)F [Example 457, 6-(3-Chloro-phenylamino)-N-(pyridin-4-ylmethyl)-2-trifluoromethyl-nicotinamide] |  | > 50%
 | O=C(NCC1CCCC1)c1cnc(Nc2cccc(Cl)c2)nc1C(F)(F)F [Example 2, 2-(3-Chlorophenylamino)-4-trifluoromethylpyrimidine-5-carboxylic acid cyclopentylmethyl-amide] | 20 to 300 nM | > 50%
 | Cc1cc(CNC(=O)c2cnc(Nc3cccc(Br)c3)nc2C(F)(F)F)ccn1 [Example 304, 2-(3-Bromo-phenylamino)-4-trifluoromethyl-pyrimidine-5-carboxylic acid (2-methyl-pyridin-4-ylmethyl)-amide] | 300 to 1000 nM | > 50%
 | O=C(NCC1CCOCC1)c1cnc(Nc2ccc(Br)cc2Cl)nc1C(F)(F)F [Example 234, 2-(2-Chloro-4-bromo-phenylamino)-4-trifluoromethyl-pyrimidine-5-carboxylic acid (tetrahydro-pyran-4-ylmethyl)-amide] | 20 to 300 nM | > 50%
 | Cc1cc(Nc2ncc(C(=O)NCC3CCOCC3)c(C(F)(F)F)n2)ccc1Cl [Example 187, 2-(4-Chloro-3-methylphenylamino)-4-trifluoromethyl-pyrimidine-5-carboxylic acid (tetrahydropyran-4-ylmethyl)-amide] | 20 to 300 nM | > 50%
 | CCN(Cc1ccccc1)C(=O)c1cnc(Nc2cccc(Cl)c2)nc1C(F)(F)F [Example 299, 2-(3-Chloro-phenylamino)-4-trifluoromethyl-pyrimidine-5-carboxylic acid N-benzyl-N-ethyl-amide] | 300 to 1000 nM | > 50%
 | O=C(NCC1CCC1)c1cnc(Nc2ccc(OC(F)(F)F)c(Cl)c2)nc1C(F)(F)F [Example 193, 2-(3-Chloro-4-trifluoromethoxyphenylamino)-4-trifluoromethyl-pyrimidine-5-carboxylic acid cyclobutylmethyl-amide] | 20 to 300 nM | > 50%
 | COc1cc(Nc2ncc(C(=O)NCC3CCOCC3)c(C(F)(F)F)n2)cc(C(F)(F)F)c1 [Example 177, 2-(3-Methoxy-5-(trifluoromethyl)phenylamino)-4-trifluoromethyl-pyrimidine-5-carboxylic acid (tetrahydropyran-4-ylmethyl)-amide] | 20 to 300 nM | > 50%
